Laboratory results from patent US20040242700A1 (priority 2001, published 2004).
Read-outs that look alike come from different tables or passages of the source.

Legend:
IL-6 = assay type: in vivo, mice
IL-12 = assay type: in vivo, mice
[1] = test system: mucosal immunoglobulin IgA; assay type: in vivo, mice
trypsin-type protease [2] = test system: trypsin-type protease; set-up: species or system mice; details: mouse, in vivo, ip
SP-A [3] = assay type: in vivo, mice; details: administration of ambroxol
MPI [4] = assay type: in vivo, mice
SP-A [5] = test system: SP-A; set-up: species or system mice; details: mouse, in vivo, ip
TNF-α = assay type: in vivo, mice; details: 3rd to 5th day of treatment, not always observed
[6] = test system: mucosal immunoglobulin IgG; assay type: in vivo, mice
MPI [7] = assay type: in vivo, mice; details: administration of ambroxol
trypsin-type protease [8] = assay type: in vivo, mice; details: 4th day
[9] = test system: mucosal immunoglobulin IgA; assay type: in vivo, mice; remark: listed apart in the source
[10] = test system: inflammatory cytokines such as TNF-α, IL-2, IL-1, IL-4, IL-13 and IFN-γ; details: literature reports; cited from earlier work
IFN-γ = assay type: in vivo, mice
[11] = test system: mucosal immunoglobulin IgG; assay type: in vivo, mice; remark: listed apart in the source

Nc1c(Br)cc(Br)cc1CN[C@H]1CC[C@H](O)CC1 [ambroxol, 2-amino-3,5-dibromo-N-[trans-4-hydroxycyclohexyl] benzyl amine] gave an IL-6 (IL-6; 10 mg/kg/day i.p., day 1) of 174.8 ± 35.0 pg/mL, an IL-6 (IL-6; 10 mg/kg/day i.p., day 2) of 191.8 ± 51.9 pg/mL and an IL-6 (IL-6; 10 mg/kg/day i.p., day 3) of 280.2 ± 54.2 pg/mL. It also gave an IL-6 (IL-6; 10 mg/kg/day i.p., day 4) of 339.2 ± 57.1 pg/mL, an IL-6 (IL-6; 10 mg/kg/day i.p., day 5) of 540.9 ± 84.2 pg/mL and an IL-6 (IL-6; 10 mg/kg/day i.p., day 6) of 503.23 ± 61.4 pg/mL. For the same compound, the IL-6 (IL-6; 10 mg/kg/day i.p., day 7) was 73.7 ± 14.7 pg/mL, the IL-6 (IL-6; 30 mg/kg/day i.p., day 1) was 170.8 ± 28.9 pg/mL and the IL-6 (IL-6; 30 mg/kg/day i.p., day 2) was 186.7 ± 19.6 pg/mL. The IL-6 (IL-6; 30 mg/kg/day i.p., day 3) was 326.2 ± 44.9 pg/mL, the IL-6 (IL-6; 30 mg/kg/day i.p., day 4) was 433.5 ± 101.9 pg/mL and the IL-6 (IL-6; 30 mg/kg/day i.p., day 5) was 478.2 ± 86.4 pg/mL. The IL-6 (IL-6; 30 mg/kg/day i.p., day 6) was 817.0 ± 168.0 pg/mL, the IL-6 (IL-6; 30 mg/kg/day i.p., day 7) was 80.0 ± 17.5 pg/mL and the “effect on the level of IL-6 in BALF” value (IL-6; 4th and 6th days of treatment) was “increased”. For the same compound, the IL-12 (IL-12; 10 mg/kg/day i.p., day 1) was 27.3 ± 7.1 pg/mL, the IL-12 (IL-12; 10 mg/kg/day i.p., day 2) was 68.5 ± 12.9 pg/mL and the IL-12 (IL-12; 10 mg/kg/day i.p., day 3) was 133.3 ± 17.2 pg/mL. For the same compound, the IL-12 (IL-12; 10 mg/kg/day i.p., day 4) was 119.5 ± 15.8 pg/mL, the IL-12 (IL-12; 10 mg/kg/day i.p., day 5) was 57.4 ± 16.0 pg/mL and the IL-12 (IL-12; 10 mg/kg/day i.p., day 6) was 29.4 ± 6.2 pg/mL. For the same compound, the IL-12 (IL-12; 10 mg/kg/day i.p., day 7) was 62.5 ± 27.7 pg/mL, the IL-12 (IL-12; 30 mg/kg/day i.p., day 1) was 22.4 ± 4.1 pg/mL and the IL-12 (IL-12; 30 mg/kg/day i.p., day 2) was 108.2 ± 33.3 pg/mL. The IL-12 (IL-12; 30 mg/kg/day i.p., day 3) was 141.5 ± 15.1 pg/mL, the IL-12 (IL-12; 30 mg/kg/day i.p., day 4) was 118.6 ± 11.4 pg/mL and the IL-12 (IL-12; 30 mg/kg/day i.p., day 5) was 62.4 ± 13.6 pg/mL. For the same compound, the IL-12 (IL-12; 30 mg/kg/day i.p., day 6) was 44.3 ± 29.1 pg/mL, the IL-12 (IL-12; 30 mg/kg/day i.p., day 7) was 95.8 ± 52.2 pg/mL and the “IgA concentration relative to the group free of treatment” value ([1]; 10 mg/kg/day, 7th day) was “about 10 times”. The “IgA concentration relative to the group free of treatment” value ([1]; 30 mg/kg/day, 5th day) was “about 10 times”, the “IgA concentration relative to the basic concentration” value ([1]; dose not stated) was “about 10 times” and the “day on which the trypsin-type protease level reached the peak value” (trypsin-type protease [2]; 10 mg/kg/day) was 5 days. For the same compound, the “day on which the trypsin-type protease level reached the peak level” value (trypsin-type protease [2]; 30 mg/kg/day) was 4 days, the “secretion of SP-A” value (SP-A [3]) was “lightly promoted” and the “MPI concentration relative to that induced by the viral infection” value (MPI [4]; […], treatment with ambroxol) was 1.9 times. The “peak MPI concentration relative to un-infected animals” value (MPI [4]; mouse, in vivo) was 8.4 times, the “day on which the MPI level reached the peak value” (MPI [4]; mouse, in vivo, ip, 10 mg/kg/day) was 5 days and the “day on which the MPI level reached the maximum value” (MPI [4]; mouse, in vivo, ip, 30 mg/kg/day) was 4 days. The “day on which the SP-A level reached the peak value” (SP-A [5]; 10 mg/kg/day) was 5 days, the “day on which the SP-A level reached the maximum value” (SP-A [5]; 30 mg/kg/day) was 4 days and the “effect on TNF-α secretion in BALF” value (TNF-α) was “secretion-inhibitory effects”. For the same compound, the “IgG concentration relative to the basic concentration of IgG” value ([6]; 10 mg/kg/day, 6th day) was “about 16 times”, the “IgG concentration relative to the basic concentration of IgG” value ([6]; 30 mg/kg/day, 5th day) was about 15 times and the “IgG concentration relative to the maximum concentration induced through the viral infection” value ([6]; treatment with ambroxol) was about 1.45 times. The “secretion of MPI” value (MPI [7]) was “lightly promoted”, the “peak trypsin-type protease level relative to un-infected animals” value (trypsin-type protease [8]; 10 mg/kg/day i.p.) was “up to 2.2 times” and the “peak trypsin-type protease level relative to un-infected animals” value (trypsin-type protease [8]; 30 mg/kg/day i.p.) was at most 2.4 times. For the same compound, the “IgA level relative to the basic concentration of IgA” value ([9]; 10 mg/kg/day, 7th day) was “about 600 times”, the “IgA level relative to the basic concentration of IgA” value ([9]; 30 mg/kg/day, 5th day) was about 700 times and the “IgA concentration relative to the maximum concentration induced through the viral infection” value ([9]; treatment with ambroxol) was 1.5-1.8 times. For the same compound, the “in vitro release of inflammatory cytokines such as TNF-α, IL-2, IL-1, IL-4, IL-13 and IFN-γ” value [10] was “inhibits”, the INF-γ (IFN-γ; 10 mg/kg/day i.p., day 1) was 9.4 ± 2.4 pg/mL and the INF-γ (IFN-γ; 10 mg/kg/day i.p., day 2) was 9.5 ± 1.8 pg/mL. It also gave an INF-γ (IFN-γ; 10 mg/kg/day i.p., day 3) of 2.8 ± 0.9 pg/mL, an IFN-γ (IFN-γ; 10 mg/kg/day i.p., day 4) of 5.3 ± 2.8 pg/mL and an IFN-γ (IFN-γ; 10 mg/kg/day i.p., day 5) of 14.7 ± 5.3 pg/mL. It also gave an IFN-γ (IFN-γ; 10 mg/kg/day i.p., day 6) of 39.4 ± 18.6 pg/mL, an IFN-γ (IFN-γ; 10 mg/kg/day i.p., day 7) of 4.0 ± 1.6 pg/mL and an INF-γ (IFN-γ; 30 mg/kg/day i.p., day 1) of 10.4 ± 2.7 pg/mL. The INF-γ (IFN-γ; 30 mg/kg/day i.p., day 2) was 9.8 ± 2.4 pg/mL, the INF-γ (IFN-γ; 30 mg/kg/day i.p., day 3) was 4.0 ± 1.1 pg/mL and the IFN-γ (IFN-γ; 30 mg/kg/day i.p., day 4) was 10.2 ± 5.5 pg/mL. For the same compound, the IFN-γ (IFN-γ; 30 mg/kg/day i.p., day 5) was 32.8 ± 11.1 pg/mL, the IFN-γ (IFN-γ; 30 mg/kg/day i.p., day 6) was 61.8 ± 21.7 pg/mL and the IFN-γ (IFN-γ; 30 mg/kg/day i.p., day 7) was 5.1 ± 1.8 pg/mL. For the same compound, the “effect on INF-γ secretion in BALF” value (IFN-γ; 1st day of treatment, not always observed) was “secretion-inhibitory effects”, the “IgG concentration relative to the group free of treatment” value ([11]; 10 mg/kg/day, 7th day) was “about 1.2 time” and the “IgG concentration relative to the group free of treatment” value ([11]; 30 mg/kg/day, 6th day) was “about 1.2 time”. The “IgG concentration relative to the basic concentration” value ([11]; dose not stated) was 1.2 times.
